Laboratory results as given in patent US20070093469A1, “Substituted azetidine compounds as cyclooxygenase-1-cyclooxygenase-2 inhibitors, and their preparation and use as medicaments” (LABORATORIOS DEL DR. ESTEVE S.A, priority 2004, published 2007).

Columns and labels:
[1] = test system: PGE2 production in rat gastric mucosa; assay: PGE2 production in rat gastric mucosa; type: in vivo; settings: rats, oral route, read-out: PGE2 gastric mucose ED50
Experimental: VI: PGE2 Production in Rat Inflammatory Exudate and Gastric Mucosa
The PGE2 production in rat inflammatory exudate and gastric mucosa is carried out as described in the publication of O Tofanetti et al., “Effect of nimesulide on cyclo-oxygenase activity in rat gastric mucosa and inflammatory exudate”, Med Sci Res 17, 745-746 (1989). The respective part of the description is hereby incorporated by reference and forms part of the present disclosure.
For this text 6 male wistar rats (Interfauna-St Feliú de Codines, Barcelona) of approximately 200 g (each approximately 6 weeks of age) are used. The compounds to be tested are administered via oral route in gum Arabic at 5% (weight/volume) at a rate of 10 ml/kg.
One hour after administration of the compounds and under halothane anaesthesia, each rat is implanted subcutaneously in the interescapular area a 40×15×5 mm polyester sponge, soaked in a 0.5% suspension of carrageenan. Rats are sacrificed 6 hours after the implant, the sponges are removed and squeezed. The exudates are collected and centrifuged at 6000×G for 15 minutes.
The rats's stomachs are removed and the gastric mucosa is detached from the underlying layers and by means of a 10 mm diameter die, mucosa samples from an area between the gastric corpus and pyloric antrum are taken. The mucosal PGE2 is extracted. PGE2 concentrations from the inflammatory exudates and the gastric mucosa are determined by means of inmmunoassay reagents of Cayman Chemical kit, Ann Arbor, Mich., U.S.A. (Catalogue number: 514010) according to the manufacturer's instructions.

Cox-2 enzyme = molecular target: T1, Cox-2 enzyme (Ovis aries, UniProt P79208); assay: Cox-1/Cox-2 enzyme assay (Cox-2); type: biochemical; settings: for IC50: enzyme assay
T1 construct: purchased Cayman Chemical 60120
T1 sequence (P79208 17-603): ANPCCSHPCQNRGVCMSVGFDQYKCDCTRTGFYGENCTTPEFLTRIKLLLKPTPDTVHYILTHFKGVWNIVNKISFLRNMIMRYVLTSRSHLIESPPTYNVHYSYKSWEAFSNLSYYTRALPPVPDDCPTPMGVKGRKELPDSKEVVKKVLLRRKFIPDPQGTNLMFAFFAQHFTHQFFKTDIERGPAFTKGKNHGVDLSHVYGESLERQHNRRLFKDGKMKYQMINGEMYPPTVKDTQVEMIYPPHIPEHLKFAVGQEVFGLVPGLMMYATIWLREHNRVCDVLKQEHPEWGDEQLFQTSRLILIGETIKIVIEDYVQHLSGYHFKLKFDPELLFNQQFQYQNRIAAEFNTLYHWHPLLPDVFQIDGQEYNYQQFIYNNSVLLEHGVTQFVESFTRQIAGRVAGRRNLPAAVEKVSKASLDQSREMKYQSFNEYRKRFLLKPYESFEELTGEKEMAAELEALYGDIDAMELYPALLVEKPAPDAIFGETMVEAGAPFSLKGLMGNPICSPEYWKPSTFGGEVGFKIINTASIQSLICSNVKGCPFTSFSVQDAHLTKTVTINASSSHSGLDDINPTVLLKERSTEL
Experimental: (§1) I. Cox-1/Cox-2 Enzyme Assay:
(§2) The Cox-1/Cox-2 enzyme assay for the inventive azetidine compounds is carried out according to the following description:
(§3) Immediately after the addition of the substrate, the slope corresponding to the optical density increase at 480 nm is recorded for 1 minute. The reaction is monitored with a Hewlett-Packard 8452A spectrophotometer.

Cox-1 enzyme = molecular target: T2, Cox-1 enzyme (Ovis aries, UniProt P05979); assay: Cox-1/Cox-2 enzyme assay (Cox-1); type: biochemical; settings: for IC50: enzyme assay
T2 construct: purchased Cayman Chemical 60100
T2 sequence (P05979 25-600): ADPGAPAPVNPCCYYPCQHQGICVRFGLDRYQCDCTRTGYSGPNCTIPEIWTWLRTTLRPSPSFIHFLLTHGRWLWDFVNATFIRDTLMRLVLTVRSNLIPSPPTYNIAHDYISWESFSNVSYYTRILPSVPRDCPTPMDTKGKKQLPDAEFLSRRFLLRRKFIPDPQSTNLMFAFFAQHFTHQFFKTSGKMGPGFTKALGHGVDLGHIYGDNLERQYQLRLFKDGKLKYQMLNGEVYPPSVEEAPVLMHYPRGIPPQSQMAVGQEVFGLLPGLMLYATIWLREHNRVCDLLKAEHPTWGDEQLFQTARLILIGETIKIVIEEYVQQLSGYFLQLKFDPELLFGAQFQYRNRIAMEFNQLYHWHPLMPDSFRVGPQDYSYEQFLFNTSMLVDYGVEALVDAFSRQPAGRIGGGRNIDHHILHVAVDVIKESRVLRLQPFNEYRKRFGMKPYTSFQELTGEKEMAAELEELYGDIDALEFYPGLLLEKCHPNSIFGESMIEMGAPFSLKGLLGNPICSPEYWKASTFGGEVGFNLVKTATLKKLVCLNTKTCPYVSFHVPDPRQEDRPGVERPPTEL
Experimental: as §1, §2, §3

rats = assay: Analgesia test in rats (carrageenan, thermal stimulus); type: in vivo; settings: Rattus norvegicus, oral route, 2 hours after administration, read-out: ED50 analgesic activity
Experimental: III: Analgesia Test in Rats
The inventive compounds are tested for analgesic activity as described above is carried out as described in the publication of K. Hargreaves et al., Pain, 32, 77-88, (1988). The respective part of the description is hereby incorporated by reference and forms part of the disclosure.
The rats are transferred to the experimentation laboratory, where they remain in groups of 5, in makrolon cages with a barred floor to avoid coprophagy. At the beginning of the experiment, water and food were removed, and animals were adequately weighed and marked.
Each rat receives via subplantar injection 0.1 ml of sterile saline solution into the left hind paw, followed by 0.1 ml of a 2% (weight/volume) carrageenan suspension in sterile saline solution into the right hind paw.
Two hours after the subplantar injections of carrageenan and vehicle, each rat receives by oral route the compounds to be tested, suspended in 5% (weight/volume) gum arabic, administered at 10 ml per kg of body weight. Two hours after the administration of the compounds to be tested, the values for analgesic activity are determined. To this purpose, the rats are transferred to the methacrylate chambers of an analgesimeter provided with a glass floor. Once the acclimatisation period in the chambers is over (i.e. after 5 minutes) an infra-red beam lamp capable of producing a thermal stimulus, is placed below the rat's paws.
The thermal stimulus, previously calibrated at 10 Amperes, is applied to each of the hind paws with at least 1 minute intervals. The response of the rats to pain consists of raising the paw, thus avoiding contact with the floor. […] The rats are tested once only to avoid possible learning behaviour.

| Structure (SMILES) | melting point [°C] | ED50 [1] [mg/kg] | IC50 (Cox-2 enzyme) [µM] | inhibition at 50 µM (Cox-2 enzyme; read-out: % inhibition 5 × 10^−5 M COX-2) [%] | inhibition at 50 µM (Cox-1 enzyme; read-out: % inhibition 5 × 10^−5 M COX-1) [%] | ED50 (rats) [mg/kg] | IC50 (Cox-1 enzyme) [µM] |
| --- | --- | --- | --- | --- | --- | --- | --- |
| CC(C)(C)c1cc(C(=O)N2CC(O)C2)cc(C(C)(C)C)c1 [Example 2, (3,5-di-tert-butyl-phenyly)-(3-hydroxy-azetidin-1-yl)-methanone] | 146 to 149 | 3.7 | 1.8 | 78 | 9 | 1.65 |  |
| CC1C(O)CN1C(=O)c1cc(C(C)(C)C)c(O)c(C(C)(C)C)c1 (stereo not shown) [Example 4, (3,5-di-tert-butyl-4-hydroxy-phenyl)-(3-hydroxy-2-methyl-azetidin-1-yl)-methanone] | 162 to 166 | 1 | 3.75 |  |  | 0.7 | 246 |
| CC(C)(C)c1cc(C(=O)N2CC(O)C2)cc2c1OCC2(C)C [Example 14, (7-tert-butyl-3,3-dimethyl-2,3-dihydro-benzofuran-5-yl)-(3-hydroxy-azetidin-1-yl)-methanone] | 144 to 148 | 2.7 | 0.6 |  |  | 3 | 48.3 |
